According to article PMC2248166, “Quantitative peptide binding motifs for 19 human and mouse MHC class I molecules derived using positional scanning combinatorial peptide libraries” (Immunome Research, 2008):

Legend:
HLA A*3001 = HLA A*3001 (Homo sapiens, UniProt P04439, D140H/D185E/E176W/F33S/G80R/H175R/K168Q/R138E/R41S); assay: biochemical; format: binding
HLA A*3201 = HLA A*3201 (Homo sapiens, UniProt P04439, A270S/D101S/D185E/E176V/E277Q/F133L/G103R/G107R/G231S/H175R/I121M/I218V/I322F/K168Q/L105A/L300P/L318F/M331R/P208A/P217A/Q94H/R106L/R138Q/S129P/T104I/T323A/T345S/V100E/V321M/V358M); assay: biochemical; format: binding
HLA A*6802 = HLA A*6802 (Homo sapiens, UniProt P04439, A269V/D140Y/D185E/E176V/E277Q/E87N/F33Y/G231S/I121R/I166T/I218V/L180W/L300P/L318F/N151K/P208A/P217A/Q86R/R138H/R169H/S129P/T345S/V36M); format: binding
HLA B*0702 = HLA B*0702 (Homo sapiens, UniProt P01889); format: binding; settings: positional scanning combinatorial 9-mer library; normalized to 1.0 for the best residue at each position
HLA B*0801 = HLA B*0801 (Homo sapiens, UniProt P01889, A93T/A95T/D138N/E176V/E187T/K202T/Q94N/R180D/S35A/V36M/Y33D/Y91F); assay: biochemical; format: binding
HLA B*1501 = HLA B*1501 (Homo sapiens, UniProt P01889, A329T/A93T/A95T/C349S/D201E/D98Y/E187L/E204Q/E69M/E70A/K202T/N87E/Q94N/R155S/R180W/S121R/S35A/S48A/V306I/V36M/Y140S/Y91S); assay: biochemical; format: binding
HLA B*1503 = HLA B*1503 (Homo sapiens, UniProt P01889, A329T/A93T/A95T/C349S/D201E/D98Y/E187L/E204Q/K202T/N87E/Q94N/R155S/R180L/S121R/S35A/V306I/V36M/Y140S/Y91S); assay: biochemical; format: binding
HLA B*2705 = HLA B*2705 (Homo sapiens, UniProt P01889, D138H/D201E/E176V/E204Q/G107R/H137Y/K202T/N104T/N87E/Q56L/Q94K/R106L/R155S/R180L/S101D/S121N/S48T/Y140D/Y33H/Y91C); format: binding; settings: positional scanning combinatorial 9-mer library; normalized to 1.0 for the best residue at each position
HLA B*3501 = HLA B*3501 (Homo sapiens, UniProt P01889, A329T/A93T/A95T/C349S/D201E/D98Y/E176V/E187L/E204Q/E69T/I218V/K202T/L119I/Q94N/R155S/R180L/S121R/S35A/S48A/T118I/V127L/V306I/V36M/Y140S/Y91F); format: binding
HLA B*5101 = HLA B*5101 (Homo sapiens, UniProt P01889, A329T/A93T/A95T/C349S/D138N/D201E/D98Y/E187L/E204Q/E69T/G107R/I218V/K202T/L105A/L119W/N104I/Q94N/R106L/R155S/R180L/S101N/S121T/S35A/S48A/V306I/V36M/Y195H/Y91F); format: binding
HLA B*5301 = HLA B*5301 (Homo sapiens, UniProt P01889, A329T/A93T/A95T/C349S/D201E/D98Y/E176V/E187L/E204Q/E69T/G107R/I218V/K202T/L105A/L119I/N104I/Q94N/R106L/R155S/R180L/S101N/S121R/S35A/S48A/T118I/V127L/V306I/V36M/Y140S/Y91F); format: binding
HLA B*5401 = HLA B*5401 (Homo sapiens, UniProt P01889, A329T/C349S/D138N/D201E/E176V/E187T/E204Q/E69G/I76V/K202T/L119W/R155S/R180L/S121T/S35A/S48A/V127L/V306I/V36M/Y140L); format: binding
HLA B*5801 = HLA B*5801 (Homo sapiens, UniProt P01889, A329T/C349S/D201E/D98Y/E176V/E187L/E204Q/E69T/G107R/I218V/I90N/K202T/L105A/L119I/N104I/N87E/Q89R/Q94S/R106L/R155S/R180L/R86G/S101N/S121R/S35A/S48A/T118I/V127L/V306I/V36M/Y140S/Y91M); format: binding
HLA B*5802 = HLA B*5802 (Homo sapiens, UniProt P01889, A329T/C349S/D201E/D98Y/E176V/E187L/E204Q/E69T/G107R/I218V/I90N/K202T/L105A/N104I/N87E/Q89R/Q94S/R106L/R155S/R180L/R86G/S101N/S121W/S35A/S48A/V127L/V306I/V36M/Y140S/Y91M); format: binding
H-2 D^b = H-2 D^b (Mus musculus, UniProt P01899); format: binding
H-2 D^b, sequence (P01887 21-119): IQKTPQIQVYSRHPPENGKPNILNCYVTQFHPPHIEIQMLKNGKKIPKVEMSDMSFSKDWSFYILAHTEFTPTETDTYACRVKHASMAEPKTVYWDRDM
H-2 D^b, sequence (P01899 25-362): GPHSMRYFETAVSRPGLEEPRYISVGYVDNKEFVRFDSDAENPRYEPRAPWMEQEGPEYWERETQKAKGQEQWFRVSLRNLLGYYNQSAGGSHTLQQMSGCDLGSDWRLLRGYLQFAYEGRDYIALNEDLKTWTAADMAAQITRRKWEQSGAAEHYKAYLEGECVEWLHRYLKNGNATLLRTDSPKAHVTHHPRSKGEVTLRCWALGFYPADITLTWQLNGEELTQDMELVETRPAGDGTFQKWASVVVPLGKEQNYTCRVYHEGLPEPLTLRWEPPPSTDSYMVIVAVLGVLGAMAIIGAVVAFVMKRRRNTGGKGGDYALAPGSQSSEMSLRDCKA

H-2 D^d = H-2 D^d (Mus musculus, UniProt P01900); format: binding
H-2 D^d, sequence (P01900 whole entry, looked up): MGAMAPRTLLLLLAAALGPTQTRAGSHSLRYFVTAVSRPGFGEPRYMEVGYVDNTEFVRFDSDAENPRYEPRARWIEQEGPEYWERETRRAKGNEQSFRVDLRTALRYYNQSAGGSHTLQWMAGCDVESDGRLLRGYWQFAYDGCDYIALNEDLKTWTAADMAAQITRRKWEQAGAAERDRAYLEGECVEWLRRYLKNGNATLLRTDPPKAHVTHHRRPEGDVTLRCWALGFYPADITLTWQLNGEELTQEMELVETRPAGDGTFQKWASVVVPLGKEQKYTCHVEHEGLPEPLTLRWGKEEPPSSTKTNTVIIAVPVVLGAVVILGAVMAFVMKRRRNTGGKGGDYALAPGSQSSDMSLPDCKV

H-2 K^k = H-2 K^k (Mus musculus, UniProt P04223); format: binding
H-2 K^k, sequence (P01887 21-119): as the sequence (P01887 21-119) above
H-2 K^k, sequence (P04223 22-369): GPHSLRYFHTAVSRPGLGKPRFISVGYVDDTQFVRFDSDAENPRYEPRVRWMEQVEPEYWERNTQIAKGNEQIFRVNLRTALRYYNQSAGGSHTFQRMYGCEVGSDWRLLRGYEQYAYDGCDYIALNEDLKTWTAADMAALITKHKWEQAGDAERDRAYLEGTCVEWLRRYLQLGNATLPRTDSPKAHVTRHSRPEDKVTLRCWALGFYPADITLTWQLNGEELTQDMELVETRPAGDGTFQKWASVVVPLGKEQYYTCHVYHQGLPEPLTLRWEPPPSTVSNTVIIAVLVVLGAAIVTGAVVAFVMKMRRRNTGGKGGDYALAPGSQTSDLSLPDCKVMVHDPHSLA

HLA A*0201 = HLA A*0201 (Homo sapiens, UniProt P04439, D140Y/D185E/D98H/E176V/E277Q/G131W/G231S/I119V/I121R/I166T/I218V/L300P/L318F/N151K/N90K/P208A/P217A/Q86G/Q94H/R138H/R169H/T345S); settings: positional scanning combinatorial 9-mer library; normalized to 1.0 for the best residue at each position
H-2 K^d = H-2 K^d (Mus musculus, UniProt P01902); format: binding
H-2 K^d, sequence (P01887 21-119): as the sequence (P01887 21-119) above
H-2 K^d, sequence (P01902 22-368): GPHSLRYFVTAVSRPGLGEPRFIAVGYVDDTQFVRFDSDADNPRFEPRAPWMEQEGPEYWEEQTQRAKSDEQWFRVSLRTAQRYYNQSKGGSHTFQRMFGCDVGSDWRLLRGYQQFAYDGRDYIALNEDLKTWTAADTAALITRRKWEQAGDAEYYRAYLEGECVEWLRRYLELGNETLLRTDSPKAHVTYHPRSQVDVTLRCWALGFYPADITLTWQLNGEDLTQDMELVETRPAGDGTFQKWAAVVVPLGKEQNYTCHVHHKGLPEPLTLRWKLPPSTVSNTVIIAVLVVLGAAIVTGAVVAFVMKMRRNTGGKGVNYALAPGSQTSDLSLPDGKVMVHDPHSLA

| Sequence | Normalized average relative binding affinity (ARB), HLA A*3001 (HLA A*3001) | Normalized average relative binding affinity (ARB), HLA A*3201 (HLA A*3201) | Normalized average relative binding affinity (ARB), HLA A*6802 (HLA A*6802) | Normalized average relative binding affinity (ARB), HLA B*0702 (HLA B*0702) | Normalized average relative binding affinity (ARB), HLA B*0801 (HLA B*0801) | Normalized average relative binding affinity (ARB), HLA B*1501 (HLA B*1501) | Normalized average relative binding affinity (ARB), HLA B*1503 (HLA B*1503) | Normalized average relative binding affinity (ARB), HLA B*2705 (HLA B*2705) | Normalized average relative binding affinity (ARB), HLA B*3501 (HLA B*3501) | Normalized average relative binding affinity (ARB), HLA B*5101 (HLA B*5101) | Normalized average relative binding affinity (ARB), HLA B*5301 (HLA B*5301) | Normalized average relative binding affinity (ARB), HLA B*5401 (HLA B*5401) | Normalized average relative binding affinity (ARB), HLA B*5801 (HLA B*5801) | Normalized average relative binding affinity (ARB), HLA B*5802 (HLA B*5802) | Normalized average relative binding affinity (ARB), H-2 Db (H-2 D^b) | Normalized average relative binding affinity (ARB), H-2 Dd (H-2 D^d) | Normalized average relative binding affinity (ARB), H-2 Kk (H-2 K^k) | Normalized average relative binding affinity (ARB), HLA A*0201 (HLA A*0201) | also measured |
| --- | --- | --- | --- | --- | --- | --- | --- | --- | --- | --- | --- | --- | --- | --- | --- | --- | --- | --- | --- |
| AXXXXXXXX [3064.0001] | 0.18 | 0.36 | 0.031 | 0.78 | 0.11 | 0.31 | 0.47 | 0.35 | 0.042 | 0.071 | 0.0057 | 0.014 | 0.33 | 0.065 | 0.14 | 0.20 | 0.18 | 0.11 | – |
| CXXXXXXXX [3064.0002] | 0.097 | 0.11 | 0.13 | 0.19 | 0.16 | 0.19 | 0.20 | 0.11 | 0.19 | 0.19 | 0.061 | 0.027 | 0.18 | 0.048 | 0.16 | 0.26 | 0.51 | 0.032 | – |
| DXXXXXXXX [3064.0003] | 0.0069 | 0.031 | 0.21 | 0.021 | 0.13 | 0.042 | 0.016 | 0.022 | 0.11 | 0.27 | 0.028 | 0.050 | 0.013 | 0.068 | 0.033 | 0.059 | 0.43 | 0.0078 | – |
| EXXXXXXXX [3064.0004] | 0.018 | 0.12 | 1.0 | 0.069 | 0.36 | 0.16 | 0.090 | 0.089 | 0.085 | 0.10 | 0.021 | 0.040 | 0.032 | 0.066 | 0.030 | 0.16 | 0.77 | 0.015 | – |
| FXXXXXXXX [3064.0005] | 0.035 | 0.090 | 0.53 | 0.21 | 0.57 | 0.59 | 1.0 | 0.60 | 0.50 | 0.25 | 0.14 | 0.74 | 0.34 | 0.081 | 1.0 | 0.34 | 1.0 | 1.0 | – |
| XXXYXXXXX [3064.0080] | – | – | – | – | – | – | – | – | – | – | – | – | – | – | – | – | – | – | Normalized average relative binding affinity(ARB) (HLA A*3001): 0.42; Normalized average relative binding affinity(ARB) (HLA A*3201): 0.71; Normalized average relative binding affinity(ARB) (HLA A*6802): 0.44; Normalized average relative binding affinity(ARB) (HLA B*0801): 0.59; Normalized average relative binding affinity(ARB) (HLA B*1501): 0.41; Normalized average relative binding affinity(ARB) (HLA B*1503): 0.55; Normalized average relative binding affinity(ARB) (HLA B*3501): 0.085; Normalized average relative binding affinity(ARB) (HLA B*5101): 0.88; Normalized average relative binding affinity(ARB) (HLA B*5301): 0.29; Normalized average relative binding affinity(ARB) (HLA B*5401): 0.26; Normalized average relative binding affinity(ARB) (HLA B*5801): 0.27; Normalized average relative binding affinity(ARB) (HLA B*5802): 0.49; Normalized average relative binding affinity(ARB) (H-2 D^b): 0.63; Normalized average relative binding affinity(ARB) (H-2 D^d): 1.0; Normalized average relative binding affinity(ARB) (H-2 K^d): 0.14; Normalized average relative binding affinity(ARB) (H-2 K^k): 0.24 |
